What all share (assay): Post-emergence weed control test (greenhouse pot, spray)
What all share (format): in vivo

In one experiment the test system is Veronica polita. The settings on record: 3 weeks after spraying; for weed control effect (activity level, fresh weight growth inhibition rate), Veronica polita: 3000 g/ha. The source says: (§1) The activity level standard of harmful plant destruction (i.e. growth inhibition rate) is as follows: • Level 10: completely dead; • Level 9: above 90% growth inhibition rate; • Level 8: above 80% growth inhibition rate; • Level 7: above 70% growth inhibition rate; • Level 6: above 60% growth inhibition rate; • Level 5: above 50% growth inhibition rate; • Level 4: above 40% growth inhibition rate; • Level 3: above 30% growth inhibition rate; • Level 2: above 20% growth inhibition rate; • Level 1: below 20% growth inhibition rate; • Level 0: no effect.
(§2) The above described growth inhibition rates are fresh weight inhibition rates.
(§3) Experiment of post-emergence test: monocotyledonous and dicotyledonous weed seeds as well as main crop seeds (i.e., wheat, corn, rice, soybean, cotton, oilseed rape, millet and sorghum) were put into a plastic pot loaded with soil, then covered with 0.5-2 cm of soil, and the seeds were allowed to grow in good greenhouse environment. The test plants were treated at 4-5 leaf stage 2-3 weeks after sowing. The test compounds of the invention were dissolved in acetone respectively, then added with Tween-80 and diluted by a certain amount of water to give solutions with certain concentrations. The solution was sprayed to the plants with a sprayer. The plants were cultured for 3 weeks in the greenhouse.

Another experiment relates to Amaranthus retroflexus. To be noted: 3000 g/ha, 3 weeks after spraying.
From the text: as §1, §2, §3

The subject of another experiment is Rorippa indica. The settings on record: 3 weeks after spraying; for weed control effect (activity level, fresh weight growth inhibition rate), Rorippa indica: 3000 g/ha.
From the text: as §1, §2, §3

The next experiment relates to Chenopodiaceae. To be noted: 3000 g/ha, 3 weeks after spraying.
From the text: as §1, §2, §3

The text below walks through data of patent US12024500B2, “Five-membered ring-substituted pyridazinol compounds and derivatives, preparation methods, herbicidal compositions and applications thereof” (Qingdao Kingagroot Chemical Compound Co., Ltd., priority 2018, dated 2024).

SMILES strings stand for the structures.

For `CC(=O)n1nccc1-c1nnc(Cl)cc1O` [Compound 130], in the experiment on Veronica polita, the “weed control effect (activity level, fresh weight growth inhibition rate), Veronica polita” value was 10 (Level 10: completely dead). Besides, the “weed control effect (activity level, fresh weight growth inhibition rate), Amaranthus retroflexus” value in the experiment with Amaranthus retroflexus is on record as 10 (Level 10: completely dead). Also, the “weed control effect (activity level, fresh weight growth inhibition rate), Rorippa indica” value in the experiment on Rorippa indica was 10 (Level 10: completely dead). Also, the “weed control effect (activity level, fresh weight growth inhibition rate), Chenopodiaceae” value in the experiment on Chenopodiaceae is 10 (Level 10: completely dead).

Regarding `Cn1nc([N+](=O)[O-])cc1-c1nnc(Cl)cc1O` [Compound 72], the “weed control effect (activity level, fresh weight growth inhibition rate), Veronica polita” value in the experiment with Veronica polita is 10 (Level 10: completely dead). Further, the “weed control effect (activity level, fresh weight growth inhibition rate), Amaranthus retroflexus” value with Amaranthus retroflexus is 10 (Level 10: completely dead). Moreover, in the experiment with Rorippa indica, the “weed control effect (activity level, fresh weight growth inhibition rate), Rorippa indica” value is 10 (Level 10: completely dead). Moreover, the “weed control effect (activity level, fresh weight growth inhibition rate), Chenopodiaceae” value with Chenopodiaceae is recorded as 10 (Level 10: completely dead).

For `Cn1nc(-c2ccccc2)cc1-c1nnc(Cl)cc1O` [Compound 73], in the experiment with Veronica polita, the “weed control effect (activity level, fresh weight growth inhibition rate), Veronica polita” value was 10 (Level 10: completely dead). In addition, the “weed control effect (activity level, fresh weight growth inhibition rate), Amaranthus retroflexus” value with Amaranthus retroflexus is 10 (Level 10: completely dead). Besides, the “weed control effect (activity level, fresh weight growth inhibition rate), Rorippa indica” value with Rorippa indica is 10 (Level 10: completely dead). For the same molecule, in the experiment with Chenopodiaceae, the “weed control effect (activity level, fresh weight growth inhibition rate), Chenopodiaceae” value was 10 (Level 10: completely dead).

For `Cn1ncc(Br)c1-c1nnc(Cl)cc1O` [Compound 78], the “weed control effect (activity level, fresh weight growth inhibition rate), Veronica polita” value in the experiment with Veronica polita is 10 (Level 10: completely dead). Also, in the experiment with Amaranthus retroflexus, the “weed control effect (activity level, fresh weight growth inhibition rate), Amaranthus retroflexus” value is 10 (Level 10: completely dead). Moreover, in the experiment on Rorippa indica, the “weed control effect (activity level, fresh weight growth inhibition rate), Rorippa indica” value is listed as 10 (Level 10: completely dead). The “weed control effect (activity level, fresh weight growth inhibition rate), Chenopodiaceae” value in the experiment on Chenopodiaceae is reported as 10 (Level 10: completely dead).

Consider `Cn1nc(CC(F)(F)F)cc1-c1nnc(Cl)cc1O` [Compound 75], for which the “weed control effect (activity level, fresh weight growth inhibition rate), Veronica polita” value in the experiment on Veronica polita was 10 (Level 10: completely dead). In addition, in the experiment on Amaranthus retroflexus, the “weed control effect (activity level, fresh weight growth inhibition rate), Amaranthus retroflexus” value is on record as 10 (Level 10: completely dead). Besides, in the experiment on Rorippa indica, the “weed control effect (activity level, fresh weight growth inhibition rate), Rorippa indica” value is 10 (Level 10: completely dead). Besides, the “weed control effect (activity level, fresh weight growth inhibition rate), Chenopodiaceae” value in the experiment on Chenopodiaceae is recorded as 10 (Level 10: completely dead).

Consider `Oc1cc(Cl)nnc1-c1ccnn1Cc1ccccc1` [Compound 54], for which the “weed control effect (activity level, fresh weight growth inhibition rate), Veronica polita” value in the experiment on Veronica polita is recorded as 10 (Level 10: completely dead). In the experiment with Amaranthus retroflexus, the “weed control effect (activity level, fresh weight growth inhibition rate), Amaranthus retroflexus” value was 10 (Level 10: completely dead). Also, the “weed control effect (activity level, fresh weight growth inhibition rate), Rorippa indica” value with Rorippa indica is 10 (Level 10: completely dead). Also, the “weed control effect (activity level, fresh weight growth inhibition rate), Chenopodiaceae” value with Chenopodiaceae is listed as 10 (Level 10: completely dead).

Regarding `CCn1nc(C2CC2)cc1-c1nnc(Cl)cc1O` [Compound 44], the “weed control effect (activity level, fresh weight growth inhibition rate), Veronica polita” value in the experiment with Veronica polita is reported as 10 (Level 10: completely dead). The “weed control effect (activity level, fresh weight growth inhibition rate), Amaranthus retroflexus” value in the experiment with Amaranthus retroflexus is given as 10 (Level 10: completely dead). Also, the “weed control effect (activity level, fresh weight growth inhibition rate), Rorippa indica” value with Rorippa indica is on record as 10 (Level 10: completely dead). The “weed control effect (activity level, fresh weight growth inhibition rate), Chenopodiaceae” value in the experiment on Chenopodiaceae is 10 (Level 10: completely dead).

As for `Cn1ncc(C2CC2)c1-c1nnc(Cl)cc1O` [Compound 82], the “weed control effect (activity level, fresh weight growth inhibition rate), Veronica polita” value in the experiment with Veronica polita is given as 10 (Level 10: completely dead). Further, the “weed control effect (activity level, fresh weight growth inhibition rate), Amaranthus retroflexus” value in the experiment with Amaranthus retroflexus is 10 (Level 10: completely dead). Besides, the “weed control effect (activity level, fresh weight growth inhibition rate), Rorippa indica” value in the experiment on Rorippa indica is 10 (Level 10: completely dead). In the experiment with Chenopodiaceae, the “weed control effect (activity level, fresh weight growth inhibition rate), Chenopodiaceae” value was 10 (Level 10: completely dead).

With `N#Cc1ccc(-c2nnc(Cl)cc2O)s1` [Compound 33], the “weed control effect (activity level), Veronica polita, comparison experiment” value with Veronica polita (300 g/ha) is reported as 10. For the same molecule, in the experiment with Veronica polita, the “weed control effect (activity level, fresh weight growth inhibition rate), Veronica polita” value is 10 (Level 10: completely dead). Besides, in the experiment on Amaranthus retroflexus, the “weed control effect (activity level, fresh weight growth inhibition rate), Amaranthus retroflexus” value is 10 (Level 10: completely dead). For the same molecule, the “weed control effect (activity level), Rorippa indica, comparison experiment” value in the experiment with Rorippa indica (300 g/ha) worked out at 10. The “weed control effect (activity level, fresh weight growth inhibition rate), Rorippa indica” value in the experiment with Rorippa indica is 10 (Level 10: completely dead). In addition, the “weed control effect (activity level, fresh weight growth inhibition rate), Chenopodiaceae” value with Chenopodiaceae is 10 (Level 10: completely dead).

As to `Cn1nc(C#N)cc1-c1nnc(Cl)cc1O` [Compound 71], the “weed control effect (activity level, fresh weight growth inhibition rate), Veronica polita” value in the experiment on Veronica polita was 10 (Level 10: completely dead). In the experiment with Amaranthus retroflexus, the “weed control effect (activity level, fresh weight growth inhibition rate), Amaranthus retroflexus” value is on record as 10 (Level 10: completely dead). Also, the “weed control effect (activity level, fresh weight growth inhibition rate), Rorippa indica” value in the experiment with Rorippa indica is on record as 10 (Level 10: completely dead). In the experiment on Chenopodiaceae, the “weed control effect (activity level, fresh weight growth inhibition rate), Chenopodiaceae” value is given as 10 (Level 10: completely dead).

Regarding `Cn1ncc(Cl)c1-c1nnc(Cl)cc1O` [Compound 77], the “weed control effect (activity level, fresh weight growth inhibition rate), Veronica polita” value in the experiment with Veronica polita is reported as 10 (Level 10: completely dead). Also, in the experiment on Amaranthus retroflexus, the “weed control effect (activity level, fresh weight growth inhibition rate), Amaranthus retroflexus” value is listed as 10 (Level 10: completely dead). Besides, the “weed control effect (activity level, fresh weight growth inhibition rate), Rorippa indica” value with Rorippa indica is 10 (Level 10: completely dead). Moreover, the “weed control effect (activity level, fresh weight growth inhibition rate), Chenopodiaceae” value in the experiment with Chenopodiaceae is recorded as 10 (Level 10: completely dead).

As for `Cn1nc(Cl)cc1-c1nnc(Cl)cc1O` [Compound 48], in the experiment with Veronica polita, the “weed control effect (activity level, fresh weight growth inhibition rate), Veronica polita” value is given as 10 (Level 10: completely dead). The “weed control effect (activity level, fresh weight growth inhibition rate), Amaranthus retroflexus” value in the experiment with Amaranthus retroflexus is reported as 10 (Level 10: completely dead). For the same molecule, the “weed control effect (activity level, fresh weight growth inhibition rate), Rorippa indica” value with Rorippa indica is 10 (Level 10: completely dead). Besides, the “weed control effect (activity level, fresh weight growth inhibition rate), Chenopodiaceae” value in the experiment with Chenopodiaceae is 10 (Level 10: completely dead).

Regarding `Cn1ncc(I)c1-c1nnc(Cl)cc1O` [Compound 79], the “weed control effect (activity level, fresh weight growth inhibition rate), Veronica polita” value in the experiment on Veronica polita is 10 (Level 10: completely dead). The “weed control effect (activity level, fresh weight growth inhibition rate), Amaranthus retroflexus” value in the experiment on Amaranthus retroflexus was 10 (Level 10: completely dead). Further, the “weed control effect (activity level, fresh weight growth inhibition rate), Rorippa indica” value in the experiment on Rorippa indica is given as 10 (Level 10: completely dead). In the experiment on Chenopodiaceae, the “weed control effect (activity level, fresh weight growth inhibition rate), Chenopodiaceae” value was 10 (Level 10: completely dead).

For `Cn1nc(F)cc1-c1nnc(Cl)cc1O` [Compound 56], in the experiment with Veronica polita, the “weed control effect (activity level, fresh weight growth inhibition rate), Veronica polita” value is 10 (Level 10: completely dead). Moreover, the “weed control effect (activity level, fresh weight growth inhibition rate), Amaranthus retroflexus” value in the experiment on Amaranthus retroflexus is reported as 10 (Level 10: completely dead). For the same molecule, the “weed control effect (activity level, fresh weight growth inhibition rate), Rorippa indica” value with Rorippa indica is on record as 10 (Level 10: completely dead). Also, the “weed control effect (activity level, fresh weight growth inhibition rate), Chenopodiaceae” value in the experiment with Chenopodiaceae is recorded as 10 (Level 10: completely dead).

For `Cn1ncc(C(F)(F)F)c1-c1nnc(Br)cc1O` [Compound 95], the “weed control effect (activity level, fresh weight growth inhibition rate), Veronica polita” value with Veronica polita was 10 (Level 10: completely dead). For the same molecule, in the experiment with Amaranthus retroflexus, the “weed control effect (activity level, fresh weight growth inhibition rate), Amaranthus retroflexus” value was 10 (Level 10: completely dead). Also, in the experiment on Rorippa indica, the “weed control effect (activity level, fresh weight growth inhibition rate), Rorippa indica” value was 10 (Level 10: completely dead). Besides, the “weed control effect (activity level, fresh weight growth inhibition rate), Chenopodiaceae” value in the experiment on Chenopodiaceae is 10 (Level 10: completely dead).

On to `Cn1cncc1-c1nnc(Cl)cc1O` [Compound 4], for which the “weed control effect (activity level, fresh weight growth inhibition rate), Veronica polita” value with Veronica polita is given as 10 (Level 10: completely dead). Moreover, the “weed control effect (activity level, fresh weight growth inhibition rate), Amaranthus retroflexus” value in the experiment with Amaranthus retroflexus is 10 (Level 10: completely dead). In the experiment with Rorippa indica, the “weed control effect (activity level, fresh weight growth inhibition rate), Rorippa indica” value was 10 (Level 10: completely dead). The “weed control effect (activity level, fresh weight growth inhibition rate), Chenopodiaceae” value with Chenopodiaceae is 10 (Level 10: completely dead).

On to `Cn1nc(C2CC2)cc1-c1nnc(C(F)(F)C(F)(F)F)cc1O` [Compound 45], for which the “weed control effect (activity level, fresh weight growth inhibition rate), Veronica polita” value in the experiment on Veronica polita was 10 (Level 10: completely dead). Also, the “weed control effect (activity level, fresh weight growth inhibition rate), Amaranthus retroflexus” value in the experiment on Amaranthus retroflexus is given as 10 (Level 10: completely dead). Also, the “weed control effect (activity level, fresh weight growth inhibition rate), Rorippa indica” value in the experiment with Rorippa indica was 10 (Level 10: completely dead). For the same molecule, in the experiment with Chenopodiaceae, the “weed control effect (activity level, fresh weight growth inhibition rate), Chenopodiaceae” value was 10 (Level 10: completely dead).

As to `Cn1ncc(F)c1-c1nnc(Cl)cc1O` [Compound 76], the “weed control effect (activity level, fresh weight growth inhibition rate), Veronica polita” value with Veronica polita is on record as 10 (Level 10: completely dead). In the experiment with Amaranthus retroflexus, the “weed control effect (activity level, fresh weight growth inhibition rate), Amaranthus retroflexus” value is on record as 10 (Level 10: completely dead). Also, the “weed control effect (activity level, fresh weight growth inhibition rate), Rorippa indica” value in the experiment on Rorippa indica is 10 (Level 10: completely dead). Besides, the “weed control effect (activity level, fresh weight growth inhibition rate), Chenopodiaceae” value in the experiment on Chenopodiaceae is reported as 10 (Level 10: completely dead).

As to `Cc1cnn(C)c1-c1nnc(Cl)cc1O` [Compound 80], the “weed control effect (activity level, fresh weight growth inhibition rate), Veronica polita” value with Veronica polita is on record as 10 (Level 10: completely dead). In the experiment with Amaranthus retroflexus, the “weed control effect (activity level, fresh weight growth inhibition rate), Amaranthus retroflexus” value was 10 (Level 10: completely dead). For the same molecule, the “weed control effect (activity level, fresh weight growth inhibition rate), Rorippa indica” value in the experiment with Rorippa indica is recorded as 10 (Level 10: completely dead). Also, in the experiment on Chenopodiaceae, the “weed control effect (activity level, fresh weight growth inhibition rate), Chenopodiaceae” value is on record as 10 (Level 10: completely dead).
